Data on two compounds can be found in patent publication US4263283A, “Method for prophylaxis and/or treatment of sickle cell disease” (Ferring Pharmaceuticals, Inc., priority 1980, dated 1981).

Structures are written as SMILES.

The conditions of data set [1]: in vivo; cited from earlier work.
A further data set concerns sickle cell disease. From the text: The patient was a person with sickle cell disease characterized by diffuse pain involving the spine, long bones and abdomen; an elevated serum bilirubin and leukocytosis (the former indicating at least temporary liver damage due to the disease); a reticulocyte count of about 15% (indicating formation of new red blood cells) and a hematocrit of 24-30% (below the normal level of 43-45%). Prior treatment included i.v. hydration, transfusion with packed red blood cells and i.v. narcotics to manage the pain.
Because of the increasing frequency and severity of sickling crises, they were treated with desmopressin to induce a state of chronic hypo-osmolalityof body fluids by combination with increasd oral fluid administration.

Setting [2] is: desmopressin 40 mcg intranasally every 6 hours + hydrochlorothiazide 100 mg daily, fluid intake 4.3±0.15 l/day.

On to `NC(=O)CC[C@@H]1NC(=O)[C@H](Cc2ccccc2)NC(=O)[C@H](Cc2ccc(O)cc2)NC(=O)CCSSC[C@@H](C(=O)N2CCC[C@H]2C(=O)N[C@H](CCCN=C(N)N)C(=O)NCC(N)=O)NC(=O)[C@H](CC(N)=O)NC1=O` [desmopressin, 1-deamino-8-D-arginine vasopressin], for which the “vascular or non-vascular smooth muscle side effects” value in data set [1] is given as “devoid of vascular or non-vascular smooth muscle side effects”. For the same compound, in the data set with sickle cell disease (after crisis signs on withdrawal), the “pain and jaundice after regimen re-instated” value is “pain and jaundice abated”. Besides, in the data set with sickle cell disease (after re-instatement of the regimen), the “period free of any signs or symptoms of sickle cell crisis” value stood at 6 months. Also, the “serum Na after regimen re-instated” value in the data set with sickle cell disease (decreased from 142 mM after re-instatement of desmopressin regimen) was determined as 127 mM. Further, in the data set with sickle cell disease (setting [2]), the “serum Na level at plateau” value stood at 125 mM and the “urine osmolality at plateau” value was 344±13 m Osm/kg. Moreover, in the data set on sickle cell disease (first period on the regimen), the “time free of any signs of crisis” value came to 54 days. In addition, in the data set with sickle cell disease (human, in vivo), the “untoward side-effects of the induced hyponatremia (nausea, cramps, disturbances in central nervous function)” value was “has not been associated with untoward side-effects”.
Turning to `NS(=O)(=O)c1cc2c(cc1Cl)NCNS2(=O)=O` [Hydrochlorothiazide], the “effect on attainment of hyponatremic state” value with sickle cell disease (100 mg daily, added to desmopressin and fluid intake of 4-5 l. daily) is recorded as “facilitated the attainment of a hyponatremic state”.
